According to patent publication US20250179066A1, “ZWITTERIONIC ANTIBACTERIAL COMPOUNDS” (Hoffmann-La Roche Inc., priority 2022, published 2025):
Where a name gives a salt, the structure may show the parent alone.

Test system: Acinetobacter baumannii ATCC17961
Assay: Antimicrobial susceptibility testing: 90% growth inhibitory concentration (IC90) determination
Format: cell-based
Settings: Acinetobacter baumannii, ATCC17961, 16 h, 90% growth inhibitory concentration against Acinetobacter baumannii ATCC17961, Iso-Sensitest broth, OD 600 nm over 16 h; read-out: ATCC 17961 IC90
How it was run: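 OD600 monitored each minute over 16 h at 35±2° C for bacteria (~5×10^5 CFU/mL final) in Iso-Sensitest medium with 10-point twofold compound series (e.g. 10-0.0195 μM final). Concentration giving 90% growth inhibition in log phase reported as IC90.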

Row | IC90 [nM] | Structure (SMILES)
1 | 783 | Cn1c(-c2cn(-c3ccc4c(cc(C(=O)NCCO)n4C)n3)nc2C(F)(F)F)cnc1C(=O)Nc1ccc(C(=O)N2CCN(C(=O)[C@H]3CC[N@@+](CCCN)(CC(=O)O)CC3)CC2)c(Cl)c1 [Example 104, cis-2-[1-(3-aminopropyl)-4-[4-[2-chloro-4-[[5-[1-[2-(2-hydroxyethylcarbamoyl)-1-methyl-pyrrolo[3,2-b]pyridin-5-yl]-3-(trifluoromethyl)pyrazol-4-yl]-1-methyl-imidazole-2-carbonyl]amino]benzoyl]piperazine-1-carbonyl]piperidin-1-ium-1-yl]acetic acid;chloride]
2 | 320 | Cn1c(-c2cn(-c3ccc(CN)cn3)nc2C(F)(F)F)cnc1C(=O)Nc1ccc(C(=O)N2CCN(C(=O)C3CC[N+](CC(=O)O)(CC4CNC4)CC3)CC2)c(Cl)c1 (stereo not drawn) [Example 21, 2-[4-[4-[4-[[5-[1-[5-(Aminomethyl)-2-pyridyl]-3-(trifluoromethyl)pyrazol-4-yl]-1-methyl-imidazole-2-carbonyl]amino]-2-chloro-benzoyl]piperazine-1-carbonyl]-1-(azetidin-3-ylmethyl)piperidin-1-ium-1-yl]acetic Acid.1:1 formic Acid.1:1 formate]
3 | 371 | Cn1c(-c2cn(-c3ccc(N)cc3F)nc2C(F)(F)F)cnc1C(=O)Nc1ccc(C(=O)N2CCN(C(=O)C3CC[N+](C)(CC(=O)O)CC3)CC2)c(Cl)c1 (stereo not drawn) [Example 193, 2-[4-[4-[4-[[5-[1-(4-amino-2-fluoro-phenyl)-3-(trifluoromethyl)pyrazol-4-yl]-1-methyl-imidazole-2-carbonyl]amino]-2-chloro-benzoyl]piperazine-1-carbonyl]-1-methyl-piperidin-1-ium-1-yl]acetic acid;iodide]
4 | 185 | COCCNc1ccc(-n2cc(-c3cnc(C(=O)Nc4ccc(C(=O)N5CCN(C(=O)[C@H]6CC[N@+](CC(=O)O)(CC7CNC7)CC6)CC5)c(C)c4)n3C)c(C(F)(F)F)n2)c(F)c1 [Example 111, cis-2-[1-(azetidin-3-ylmethyl)-4-[4-[4-[[5-[1-[2-fluoro-4-(2-methoxyethylamino)phenyl]-3-(trifluoromethyl)pyrazol-4-yl]-1-methyl-imidazole-2-carbonyl]amino]-2-methyl-benzoyl]piperazine-1-carbonyl]piperidin-1-ium-1-yl]acetic acid;2,2,2-trifluoroacetate]
5 | 152 | Cn1c(-c2cn(-c3ccc(NCCN(CCN)CCN)cn3)nc2C(F)(F)F)cnc1C(=O)Nc1ccc(C(=O)N2CCN(C(=O)C3CC[N+](CC(=O)O)(CC4CNC4)CC3)CC2)c(Cl)c1 (stereo not drawn) [Example 166, cis-2-[1-(azetidin-3-ylmethyl)-4-[4-[4-[[5-[1-[5-[2-[bis(2-aminoethyl)amino]ethylamino]-2-pyridyl]-3-(trifluoromethyl)pyrazol-4-yl]-1-methyl-imidazole-2-carbonyl]amino]-2-chloro-benzoyl]piperazine-1-carbonyl]piperidin-1-ium-1-yl]acetic acid;formic acid;formate]
6 | 550 | Cn1c(-c2cn(-c3ccc4[nH]cnc4n3)nc2C(F)(F)F)cnc1C(=O)Nc1ccc(C(=O)N2CCN(C(=O)[C@H]3CC[N@+](CC(=O)O)(CC4CNC4)CC3)CC2)c(Cl)c1 [Example 55, cis-2-[1-(azetidin-3-ylmethyl)-4-[4-[2-chloro-4-[[5-[1-(1H-imidazo[4,5-b]pyridin-5-yl)-3-(trifluoromethyl)pyrazol-4-yl]-1-methyl-imidazole-2-carbonyl]amino]benzoyl]piperazine-1-carbonyl]piperidin-1-ium-1-yl]acetic acid. 1:1 2,2,2-trifluoroacetate]
7 | 1820 | Cn1c(-c2cn(-c3ccc(N)cn3)nc2C(F)(F)F)cnc1C(=O)Nc1ccc(C(=O)N2CCC(C(=O)NCCCc3cc[n+](CC(=O)O)c(CCCN)c3)CC2)c(Cl)c1 [Example 96, 2-[2-(3-aminopropyl)-4-[3-[[1-[4-[[5-[1-(5-amino-2-pyridyl)-3-(trifluoromethyl)pyrazol-4-yl]-1-methyl-imidazole-2-carbonyl]amino]-2-chloro-benzoyl]piperidine-4-carbonyl]amino]propyl]pyridin-1-ium-1-yl]acetic acid. 1:1 2,2,2-trifluoroacetic acid. 1:1 2,2,2-trifluoroacetate]
8 | 520 | Cn1c(-c2cn(-c3ccc(NCCCCCCN)cn3)nc2C(F)(F)F)cnc1C(=O)Nc1ccc(C(=O)N2CCN(C(=O)C3CC[N+](CC(=O)O)(CC4CNC4)CC3)CC2)c(Cl)c1 (stereo not drawn) [Example 51, 2-[4-[4-[4-[[5-[1-[5-(6-aminohexylamino)-2-pyridyl]-3-(trifluoromethyl)pyrazol-4-yl]-1-methyl-imidazole-2-carbonyl]amino]-2-chloro-benzoyl]piperazine-1-carbonyl]-1-(azetidin-3-ylmethyl)piperidin-1-ium-1-yl]acetic acid. 1:1 2,2,2-trifluoroacetic acid. 1:1 2,2,2-trifluoroacetate]
9 | 950 | Cn1c(-c2cn(-c3ccc(N)cn3)nc2C(F)(F)F)cnc1C(=O)Nc1ccc(C(=O)N2CCC(C(=O)N3CC[N+](CCCN)(CC(=O)O)CC3)CC2)c(Cl)c1 [Example 75, 2-[1-(3-aminopropyl)-4-[1-[4-[[5-[1-(5-amino-2-pyridyl)-3-(trifluoromethyl)pyrazol-4-yl]-1-methyl-imidazole-2-carbonyl]amino]-2-chloro-benzoyl]piperidine-4-carbonyl]piperazin-1-ium-1-yl]acetic acid. 1:1 2,2,2-trifluoroacetate]
10 | 199 | Cn1c(-c2cn(-c3ccc4c(ccn4CCN)n3)nc2C(F)(F)F)cnc1C(=O)Nc1ccc(C(=O)N2CCN(C(=O)[C@H]3CC[N@+](CC(=O)O)(CC4CNC4)CC3)CC2)c(Cl)c1 [Example 190, cis-2-[4-[4-[4-[[5-[1-[1-(2-aminoethyl)pyrrolo[3,2-b]pyridin-5-yl]-3-(trifluoromethyl)pyrazol-4-yl]-1-methyl-imidazole-2-carbonyl]amino]-2-chloro-benzoyl]piperazine-1-carbonyl]-1-(azetidin-3-ylmethyl)piperidin-1-ium-1-yl]acetic acid. 1:1 hydrogen chloride. 1:1 chloride]
11 | 420 | Cn1c(-c2cn(-c3ccc(NCCN)cn3)nc2C(F)(F)F)cnc1C(=O)Nc1ccc(C(=O)N2CCN(C(=O)CCC[N+](CCCCN)(CCCCN)CC(=O)O)CC2)c(Cl)c1 [Example 36, bis(4-aminobutyl)-[4-[4-[4-[[5-[1-[5-(2-aminoethylamino)-2-pyridyl]-3-(trifluoromethyl)pyrazol-4-yl]-1-methyl-imidazole-2-carbonyl]amino]-2-chloro-benzoyl]piperazino]-4-keto-butyl]-(carboxymethyl)ammonium. 1:2 2,2,2-trifluoroacetic acid. 1:1 2,2,2-trifluoroacetate]

Row | Structure (SMILES) | IC90 [nM]
12 | Cn1c(-c2cn(-c3ccc(N)cn3)nc2C(F)(F)F)cnc1C(=O)Nc1ccc(C(=O)N2C3CCC2CN(C(=O)C2CC[N+](CC(=O)O)(CC4CNC4)CC2)C3)c(Cl)c1 (stereo not drawn) [Example 89, 2-[4-[8-[4-[[5-[1-(5-amino-2-pyridyl)-3-(trifluoromethyl)pyrazol-4-yl]-1-methyl-imidazole-2-carbonyl]amino]-2-chloro-benzoyl]-3,8-diazabicyclo[3.2.1]octane-3-carbonyl]-1-(azetidin-3-ylmethyl)piperidin-1-ium-1-yl]acetic acid. 1:1 formate] | 1490
